Experimental data: patent US7829572B2 (Pfizer Inc, priority 2006, dated 2010)
pIC50: −log10 of the molar value.

Target: T1, calcium receptor (CasR) (Homo sapiens, UniProt P41180)
T1 construct: expressed in transfected cells; host or cells: HEK 293
T1 sequence (P41180 20-1078): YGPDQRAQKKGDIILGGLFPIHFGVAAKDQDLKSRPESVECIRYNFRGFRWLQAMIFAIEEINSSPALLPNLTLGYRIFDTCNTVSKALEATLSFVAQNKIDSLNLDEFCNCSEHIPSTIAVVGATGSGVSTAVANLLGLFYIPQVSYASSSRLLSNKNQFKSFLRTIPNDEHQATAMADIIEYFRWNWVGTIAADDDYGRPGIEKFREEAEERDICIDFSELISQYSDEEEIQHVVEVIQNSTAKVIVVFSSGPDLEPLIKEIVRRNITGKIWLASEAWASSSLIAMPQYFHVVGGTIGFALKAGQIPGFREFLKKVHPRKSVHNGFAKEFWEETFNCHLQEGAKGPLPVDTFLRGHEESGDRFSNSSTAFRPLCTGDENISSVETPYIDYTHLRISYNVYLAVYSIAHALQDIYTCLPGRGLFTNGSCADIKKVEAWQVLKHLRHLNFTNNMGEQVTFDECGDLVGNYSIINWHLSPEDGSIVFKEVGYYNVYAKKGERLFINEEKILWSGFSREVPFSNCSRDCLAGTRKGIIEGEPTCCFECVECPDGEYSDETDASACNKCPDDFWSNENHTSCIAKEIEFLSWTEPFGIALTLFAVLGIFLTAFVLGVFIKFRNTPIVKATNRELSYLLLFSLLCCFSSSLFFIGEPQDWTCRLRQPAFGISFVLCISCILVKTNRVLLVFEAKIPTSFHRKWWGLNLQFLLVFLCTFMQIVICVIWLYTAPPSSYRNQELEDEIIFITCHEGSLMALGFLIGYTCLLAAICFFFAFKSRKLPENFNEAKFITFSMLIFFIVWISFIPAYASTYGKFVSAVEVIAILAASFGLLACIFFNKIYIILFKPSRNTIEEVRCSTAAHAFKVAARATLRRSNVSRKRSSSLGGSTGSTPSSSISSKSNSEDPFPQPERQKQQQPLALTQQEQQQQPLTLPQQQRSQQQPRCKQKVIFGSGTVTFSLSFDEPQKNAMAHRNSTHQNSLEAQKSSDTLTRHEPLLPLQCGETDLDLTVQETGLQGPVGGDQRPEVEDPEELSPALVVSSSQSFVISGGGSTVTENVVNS
Assay: FLIPR Assay for Evaluating the Potency and Selectivity of Test Compounds
Format: cell-based
Details: HEK 293 cells expressing CasR; 30 minutes pre-incubation; stimulation by 1.7 mM Ca2+; read 42 seconds after stimulation
From the text: FLIPR Assay for Evaluating the Potency and Selectivity of Test Compounds
Human kidney cell (HEK 293) expressing the calcium receptor (CasR) are used to detect antagonists of the receptor using Fluorometric imaging plate reader (FLIPR, Molecular Devices, Sunnyvale Calif.). Receptor activation by extracellular calcium results in the release of calcium from intracellular stores into the cytosol. A fluorescent indicator (Fluo-4) is internalized by the cells from growth media and interacts with calcium released into the cytosol to provide a means of quantifying intracellular Ca^2+ levels and receptor agonism/antagonism. Fluorescence intensity is detected by the FLIPR CCD camera and traced as a function of time. Potential antagonists are identified by their ability to decrease this fluorescent response.
Prior to the addition of test compound cells are washed with a 10 mM HEPES buffer solution. The test compound, for example the compound of Example 1, is added at various doses (from 1 µM to 3 nM) and pre-incubated with cells for 30 minutes followed by stimulation of the CasR by the addition of 1.7 mM Ca^2+. IC50 values are based on the ability of the cells to inhibit the Ca^2+ induced increase in intracellular Ca^2+. Fluorescence signal is read 42 seconds after the stimulation of the CasR by the addition of 1.7 mM Ca^2+.
The following table provides FLIPR IC50 data for the specified Examples. The IC50s are reported as micromolar concentration with n being the number of times the particular compound was assayed.

| SMILES | pIC50 |
| --- | --- |
| CN1CCN(c2nccc3nc(-c4ccccc4O)n(CCc4ccccc4)c(=O)c23)CC1 [Example 19, 2-(2-Hydroxy-phenyl)-5-(4-methyl-piperazin-1-yl)-3-phenethyl-3H-pyrido[4,3-d]pyrimidin-4-one] | < 4.00 |
| O=c1c2c(C(F)(F)F)nccc2nc(-c2ncccc2O)n1CCc1ccccc1F [Example 12, 3-[2-(2-Fluoro-phenyl)-ethyl-]2-(3-hydroxy-pyridin-2-yl)-5-trifluoromethyl-3H-pyrido[4,3-d]pyrimidin-4-one] | 6.60 |
| O=c1c2c(C(F)(F)F)nccc2nc(-c2ncccc2C(F)(F)F)n1CCc1ccccc1 [Example 76, 3-Phenethyl-5-trifluoromethyl-2-(3-trifluoromethyl-pyridin-2-yl)-3H-pyrido[4,3-d]pyrimidin-4-one] | 5.20 |
| COc1ccccc1CCn1c(-c2ncccc2O)nc2ccnc(C(F)(F)F)c2c1=O [Example 39, 3-(2-methoxyphenethyl)-2-(3-hydroxypyridin-2-yl)-5-(trifluoromethyl)pyrido[4,3-d]pyrimidin-4(3H)-one] | 6.96 |
| C[C@H](Cc1ccccc1)n1c(C2CCCC2)nc2ccnc(C(F)(F)F)c2c1=O [Example 57, (R)-2-cyclopentyl-3-(1-phenylpropan-2-yl)-5-(trifluoromethyl)pyrido[4,3-d]pyrimidin-4(3H)-one] | 5.78 |
| C[C@H](Cc1ccccc1)n1c(-c2cscn2)nc2ccnc(C(F)(F)F)c2c1=O [Example 53, (R)-3-(1-phenylpropan-2-yl)-2-(thiazol-4-yl)-5-(trifluoromethyl)pyrido[4,3-d]pyrimidin-4(3H)-one] | 6.59 |
| O=c1c2c(N3CCCC3)nccc2nc(-c2ccccc2O)n1CCc1ccccc1 [Example 18, 2-(2-Hydroxy-phenyl)-3-phenethyl-5-pyrrolidin-1-yl-3H-pyrido[4,3-d]pyrimidin-4-one] | 4.91 |
| O=c1c2c(C(F)(F)F)nccc2nc(-c2ccccc2O)n1CCc1cccc(F)c1 [Example 8] | 7.05 |
| Nc1cccnc1-c1nc2ccnc(C(F)(F)F)c2c(=O)n1CCc1ccccc1 [Example 63, 2-(3-aminopyridin-2-yl)-3-phenethyl-5-(trifluoromethyl)pyrido[4,3-d]pyrimidin-4(3H)-one] | 6.11 |
| CC(C)Oc1nccc2nc(-c3ccccc3O)n(CCc3ccccc3)c(=O)c12 [Example 35, 2-(2-Hydroxy-phenyl)-5-isopropoxy-3-phenethyl-3H-pyrido[4,3-d]pyrimidin-4-one] | 6.42 |
| O=c1c2c(OCC(F)(F)F)nccc2nc(-c2ccccc2O)n1CCc1ccccc1 [Example 36, 2-(2-Hydroxy-phenyl)-3-phenethyl-5-(2,2,2-trifluoro-ethoxy)-3H-pyrido[4,3-d]pyrimidin-4-one] | 6.22 |
| C[C@@H](CC1CCCCC1)n1c(-c2ncccc2O)nc2ccnc(C(F)(F)F)c2c1=O [Example 48b, (S)-3-(1-cyclohexylpropan-2-yl)-2-(3-hydroxypyridin-2-yl)-5-(trifluoromethyl)pyrido[4,3-d]pyrimidin-4(3H)-one] | 5.77 |
| O=c1c2c(C(F)(F)F)nccc2nc(-c2ccccc2O)n1CCc1ccc(F)c(F)c1 [Example 15] | 6.80 |
| Cc1cc(-c2nccc3nc(-c4ccccc4O)n(CCc4ccccc4)c(=O)c23)cnc1N(C)C [Example 28, 5-(6-Dimethylamino-5-methyl-pyridin-3-yl)-2-(2-hydroxy-phenyl)-3-phenethyl-3H-pyrido[4,3-d]pyrimidin-4-one] | 5.32 |
| C[C@H](Cc1ccccc1)n1c(-c2ccccc2O)nc2ccnc(C(F)(F)F)c2c1=O [Example 4a, (R)-2-(2-Hydroxy-phenyl)-3-(1-methyl-2-phenyl-ethyl)-5-trifluoromethyl-3H-pyrido[4,3-d]pyrimidin-4-one] | 7.22 |
| O=c1c2c(C(F)(F)F)nccc2nc(-c2ncccc2C(F)F)n1CCc1ccccc1 [Example 80, 2-(3-(difluoromethyl)pyridin-2-yl)-3-phenethyl-5-(trifluoromethyl)pyrido[4,3-d]pyrimidin-4(3H)-one] | 6.52 |
| O=c1c2c(C(F)(F)F)nccc2nc(-c2ccccc2O)n1CCc1ccccc1 [Example 1, 2-(2-Hydroxy-phenyl)-3-phenethyl-5-trifluoromethyl-3H-pyrido[4,3-d]pyri-midin-4-one] | 7.30 |
| O=c1c2c(N3CCC3)nccc2nc(-c2ccccc2O)n1CCc1ccccc1 [Example 23, 5-Azetidin-1-yl-2-(2-hydroxy-phenyl)-3-phenethyl-3H-pyrido[4,3-]d-pyrimidin-4-one] | 4.86 |
| O=c1c2c(C(F)(F)F)nccc2nc(-c2ncccc2O)n1C1CCCCC1 [Example 74, 3-cyclohexyl-2-(3-hydroxypyridin-2-yl)-5-(trifluoromethyl)pyrido[4,3-d]pyrimidin-4(3H)-one] | 4.32 |
| C[C@H](Cc1ccccc1)n1c(-c2ncccc2C(F)(F)F)nc2ccnc(C(F)(F)F)c2c1=O [Example 77] | 6.15 |
| CC(Cc1ccccc1F)n1c(-c2ncccc2O)nc2ccnc(C(F)(F)F)c2c1=O (single isomer, unassigned) [Example 6a, 2-(3-Hydroxy-pyridin-2-yl)-3-(1-methyl-2-(2-fluorophenyl)ethyl)-5-trifluoromethyl-3H-pyrido[4,3-d]pyrimidin-4-one] | 7.30 |
| CC(C)COc1nccc2nc(-c3ccccc3O)n(CCc3ccccc3)c(=O)c12 [Example 34, 2-(2-Hydroxy-phenyl)-5-isobutoxy-3-phenethyl-3H-pyrido[4,3-d]pyrimidin-4-one] | 5.83 |
| COc1ccc(F)cc1CCn1c(-c2ncccc2O)nc2ccnc(C(F)(F)F)c2c1=O [Example 41, 3-(5-fluoro-2-methoxyphenethyl)-2-(3-hydroxypyridin-2-yl)-5-(trifluoromethyl)pyrido[4,3-d]pyrimidin-4(3H)-one] | 6.60 |
| C[C@@H](Cc1ccc(F)c(F)c1)n1c(-c2ncccc2O)nc2ccnc(C(F)(F)F)c2c1=O [Example 37b, (S)-3-(1-(3,4-difluorophenyl)propan-2-yl)-2-(3-hydroxypyridin-2-yl) 5-(trifluoromethyl)pyrido[4,3-d]pyrimidin-4(3H)-one] | 5.67 |
| N#Cc1ccccc1-c1nc2cccc(C(F)(F)F)c2c(=O)n1CCc1ccccc1F [Example 71, 2-(3-(2-fluorophenethyl)-4-oxo-5-(trifluoromethyl)-3,4-dihydroquinazolin-2-yl)benzonitrile] | 6.38 |
| COc1nccc2nc(-c3ccccc3O)n(CCc3ccccc3)c(=O)c12 [Example 30, 2-(2-Hydroxy-phenyl)-5-methoxy-3-phenethyl-3H-pyrido[4,3-d]pyrimidin-4-one] | 5.93 |
| CC1(COc2nccc3nc(-c4ccccc4O)n(CCc4ccccc4)c(=O)c23)CC1 [Example 31, 2-(2-Hydroxy-phenyl)-5-(1-methyl-cyclopropylmethoxy)-3-phenethyl-3H-pyrido[4,3-d]pyrimidin-4-one] | 5.71 |
| CC(Cc1ccccc1F)n1c(-c2cscn2)nc2ccnc(C(F)(F)F)c2c1=O (stereo not shown) [Example 65, 3-(1-(2-fluorophenyl)propan-2-yl)-2-(thiazol-4-yl)-5-(trifluoromethyl)pyrido[4,3-d]pyrimidin-4(3H)-one] | 4.98 |
